The test system of the assay is soluble sericin. Put plainly: Hydrolytic activity of enzymes on soluble sericin (absorbance of supernatant at 271 nm). It counts as biochemical. The settings on record: 10% enzyme, pH 7, 8 hours, 30-70° C. tested. As to the method: To confirm the degree of hydrolysis of sericin according to the kinds of enzyme, a total of 7 kinds of endopeptidase type alcalase, esperase, protamax, bromelain, papain, neutrase and exopeptidase type flavourzyme were prepared. At this time, sericin extracted from the sericin prepared in Preparation Example 1 at 120° C. for 30 minutes was used as a substrate sample, and after centrifugation, insoluble sericin was removed and soluble sericin was used. […]
The reactants after hydrolysis were subjected to enzyme inactivation at 85° C. for 10 min, and then the supernatant was collected by centrifugation (10,000 rpm, 10 min). After diluting the supernatant 20 times with D/W, the absorbance value measured at 271 nm, which is the maximum absorption wavelength of sericin, with a spectrophotometer (UV/VIS Nano Spectrophotometer, Nabi, Microdigital) was used as a measure of solubility.
In order to minimize the change in pH during the enzyme reaction of Preparation Example 2, the pH was adjusted using 1 M acetic acid and an average of 26.5% ammonia hydroxide. 1 mg of soluble sericin was treated with 0.1 mg of an enzyme (10% of sericin concentration), […], and then the supernatant was collected to measure the absorbance with pH change. […]

On to bromelain, for which the “temperature at which high hydrolytic activity was shown” value stood at 50 °C.

B1: papain: endopeptidase type enzyme (protein, UniProt P00784 134-345, looked up)
Papain: IPEYVDWRQKGAVTPVKNQGSCGSCWAFSAVVTIEGIIKIRTGNLNEYSEQELLDCDRRSYGCNGGYPWSALQLVAQYGIHYRNTYPYEGVQRYCRSREKGPYAAKTDGVRQVQPYNEGALLYSIANQPVSVVLEAAGKDFQLYRGGIFVGPCGNKVDHAVAAVGYGPNYILIKNSWGTGWGENGYIRIKRGTGNSYGVCGLYTSSFYPVKN
Regarding B1, the “temperature at which high hydrolytic activity was shown” value was determined as 60 °C.

(Values after patent US20250319012A1, “METHOD FOR PREPARING LOW-MOLECULAR-WEIGHT SILK SERICIN, AND COSMETIC COMPOSITION COMPRISING SERICIN PREPARED THEREBY” (HEWON CO., LTD., priority 2021, published 2025).)
